Legend:
[1] = tested on: anti-M2 human monoclonal antibody Z3G1; assay type: binding
HuM2e antibody 23K12 = assay type: binding, human

## 454 (SLLTEVETPIMNEWGCRCNDSSD; epitope peptide) [compound 454]
[1]
  Signal (peptides that show specific binding to Z3G1): 2369
HuM2e antibody 23K12
  Signal (peptides that bind to 23K21 and 8I10): 1308

## 456 (CSLLTECGMSLLCEV; epitope peptide) [compound 456]
[1]
  Signal (peptides that bind to Z3G1): 1640
HuM2e antibody 23K12
  Signal (peptides that bind to 23K21 and 8I10): 1294

## 457 (SLLTEVETPMRNEWGCRCNDSSD; epitope peptide) [compound 457]
[1]
  Signal (peptides that show specific binding to Z3G1): 2297
HuM2e antibody 23K12
  Signal (peptides that bind to 23K21 and 8I10): 1281

## 459 (SLITEVETPIRNEWGCRCNDSSD; epitope peptide) [compound 459]
[1]
  Signal (peptides that show specific binding to Z3G1): 1996
HuM2e antibody 23K12
  Signal (peptides that bind to 23K21 and 8I10): 1277

## 460 (MSLLTECGMSLLCEV; epitope peptide) [compound 460]
[1]
  Signal (peptides that bind to Z3G1): 2373
HuM2e antibody 23K12
  Signal (peptides that bind to 23K21 and 8I10): 1268

## 461 (SLLTEVETPLRNEWGCRCNDSSD; epitope peptide) [compound 461]
[1]
  Signal (peptides that show specific binding to Z3G1): 2239
HuM2e antibody 23K12
  Signal (peptides that bind to 23K21 and 8I10): 1268

## 464 (SLLTEVGSLCTEV; epitope peptide) [compound 464]
[1]
  Signal (peptides that show specific binding to Z3G1): 2219
HuM2e antibody 23K12
  Signal (peptides that bind to 23K21 and 8I10): 1256

## 465 (SLLTEVETPIRNEWGCRCNKSSD; epitope peptide) [compound 465]
[1]
  Signal (peptides that bind to Z3G1): 2597
HuM2e antibody 23K12
  Signal (peptides that bind to 23K21 and 8I10): 1254

## 467 (SLLTEVENPIRNEWGCRCNDSSD; epitope peptide) [compound 467]
[1]
  Signal (peptides that show specific binding to Z3G1): 2549
HuM2e antibody 23K12
  Signal (peptides that bind to 23K21 and 8I10): 1245

## 470 (MSLLTEVGCSLLTEC; epitope peptide) [compound 470]
[1]
  Signal (peptides that bind to Z3G1): 2349
HuM2e antibody 23K12
  Signal (peptides that bind to 23K21 and 8I10): 1227

## 473 (SLSTEVETPIRNEWGCRCNDSSD; epitope peptide) [compound 473]
[1]
  Signal (peptides that show specific binding to Z3G1): 2052
HuM2e antibody 23K12
  Signal (peptides that bind to 23K21 and 8I10): 1217

## 476 (CSLLTEVGCSCLCEV; epitope peptide) [compound 476]
[1]
  Signal (peptides that bind to Z3G1): 1680
HuM2e antibody 23K12
  Signal (peptides that bind to 23K21 and 8I10): 1206

## 477 (SLLTECGSLLCEV; epitope peptide) [compound 477]
[1]
  Signal (peptides that show specific binding to Z3G1): 2403
HuM2e antibody 23K12
  Signal (peptides that bind to 23K21 and 8I10): 1206

## 482 (CLCTCVGSLLTEV; epitope peptide) [compound 482]
[1]
  Signal (peptides that show specific binding to Z3G1): 1953
HuM2e antibody 23K12
  Signal (peptides that bind to 23K21 and 8I10): 1178

## 484 (SLVTEVETPIRNEWGCRCNDSSD; epitope peptide) [compound 484]
[1]
  Signal (peptides that show specific binding to Z3G1): 2029
HuM2e antibody 23K12
  Signal (peptides that bind to 23K21 and 8I10): 1175

## 488 (SLLTEVETPIHNEWGCRCNDSSD; epitope peptide) [compound 488]
[1]
  Signal (peptides that show specific binding to Z3G1): 2121
HuM2e antibody 23K12
  Signal (peptides that bind to 23K21 and 8I10): 1112

## 491 (SLLTEVETLIRNEWGCRCNDSSD; epitope peptide) [compound 491]
[1]
  Signal (peptides that show specific binding to Z3G1): 2225
HuM2e antibody 23K12
  Signal (peptides that bind to 23K21 and 8I10): 1109

## 493 (SLLTEVETMIRNEWGCRCNDSSD; epitope peptide) [compound 493]
[1]
  Signal (peptides that show specific binding to Z3G1): 2320
HuM2e antibody 23K12
  Signal (peptides that bind to 23K21 and 8I10): 1104

## 496 (SCLTEVGSLLCEV; epitope peptide) [compound 496]
[1]
  Signal (peptides that show specific binding to Z3G1): 1896
HuM2e antibody 23K12
  Signal (peptides that bind to 23K21 and 8I10): 1095

## 499 (CSLLTEVGMSCLCEC; epitope peptide) [compound 499]
[1]
  Signal (peptides that bind to Z3G1): 2101
HuM2e antibody 23K12
  Signal (peptides that bind to 23K21 and 8I10): 1066

## 500 (SCLTEVGSLLTEV; epitope peptide) [compound 500]
[1]
  Signal (peptides that show specific binding to Z3G1): 1610
HuM2e antibody 23K12
  Signal (peptides that bind to 23K21 and 8I10): 1066

## 501 (SLLTEVETPIRNEWGCCCNDSSD; epitope peptide) [compound 501]
[1]
  Signal (peptides that show specific binding to Z3G1): 2515
HuM2e antibody 23K12
  Signal (peptides that bind to 23K21 and 8I10): 1065

## 503 (SLLTEVETPIRNEWGCWCNDSSD; epitope peptide) [compound 503]
[1]
  Signal (peptides that show specific binding to Z3G1): 2437
HuM2e antibody 23K12
  Signal (peptides that bind to 23K21 and 8I10): 1061

## 504 (SLLTEVETPIRNEWGFRCNDSSD; epitope peptide) [compound 504]
[1]
  Signal (peptides that show specific binding to Z3G1): 2349
HuM2e antibody 23K12
  Signal (peptides that bind to 23K21 and 8I10): 1057

## 506 (SLCTEVGSLLCEV; epitope peptide) [compound 506]
[1]
  Signal (peptides that show specific binding to Z3G1): 1863
HuM2e antibody 23K12
  Signal (peptides that bind to 23K21 and 8I10): 1050

## 508 (MSLCTEVGCSLLTEV; epitope peptide) [compound 508]
[1]
  Signal (peptides that bind to Z3G1): 2832
HuM2e antibody 23K12
  Signal (peptides that bind to 23K21 and 8I10): 1049

## 509 (SLLTEVETPIYNEWGCRCNDSSD; epitope peptide) [compound 509]
[1]
  Signal (peptides that show specific binding to Z3G1): 2296
HuM2e antibody 23K12
  Signal (peptides that bind to 23K21 and 8I10): 1049

## 510 (SLRTEVETPIRNEWGCRCNDSSD; epitope peptide) [compound 510]
[1]
  Signal (peptides that show specific binding to Z3G1): 1034
HuM2e antibody 23K12
  Signal (peptides that bind to 23K21 and 8I10): 1047

## 511 (SLLCEVGCSLLTEV; epitope peptide) [compound 511]
[1]
  Signal (peptides that show specific binding to Z3G1): 2562
HuM2e antibody 23K12
  Signal (peptides that bind to 23K21 and 8I10): 1044

## 512 (SLLTEVETPIRNQWGCRCNDSSD; epitope peptide) [compound 512]
[1]
  Signal (peptides that show specific binding to Z3G1): 2402
HuM2e antibody 23K12
  Signal (peptides that bind to 23K21 and 8I10): 1039

## 513 (MCLLTEVGMSLLTEV; epitope peptide) [compound 513]
[1]
  Signal (peptides that bind to Z3G1): 2697
HuM2e antibody 23K12
  Signal (peptides that bind to 23K21 and 8I10): 1032

## 516 (SLLTEVETPIRNEWGCRCPDSSD; epitope peptide) [compound 516]
[1]
  Signal (peptides that bind to Z3G1): 2449
HuM2e antibody 23K12
  Signal (peptides that bind to 23K21 and 8I10): 1024

## 517 (SLLTEVETPIRNEMGCRCNDSSD; epitope peptide) [compound 517]
[1]
  Signal (peptides that show specific binding to Z3G1): 2398
HuM2e antibody 23K12
  Signal (peptides that bind to 23K21 and 8I10): 1020

## 519 (SLLTEVETPIRNEWGCRSNDSSD; epitope peptide) [compound 519]
[1]
  Signal (peptides that show specific binding to Z3G1): 2344
HuM2e antibody 23K12
  Signal (peptides that bind to 23K21 and 8I10): 1016

## 520 (VLLTEVETPIRNEWGCRCNDSSD; epitope peptide) [compound 520]
[1]
  Signal (peptides that show specific binding to Z3G1): 1758
HuM2e antibody 23K12
  Signal (peptides that bind to 23K21 and 8I10): 1014

## 522 (SLLTMVETPIRNEWGCRCNDSSD; epitope peptide) [compound 522]
[1]
  Signal (peptides that show specific binding to Z3G1): 1244
HuM2e antibody 23K12
  Signal (peptides that bind to 23K21 and 8I10): 1011

Source: patent US8932597B2 (priority 2008, dated 2015)
